Laboratory results taken from article PMC6271259, “Design, Synthesis and SAR Study of Novel Trisubstituted Pyrimidine Amide Derivatives as CCR4 Antagonists” (Molecules, 2014).

Legend:
CCR4 = target: T1, CCR4 (Homo sapiens, UniProt P51679); assay: CCR4-MDC chemotaxis inhibition assay (48-well Boyden chamber, L1.2 cells transfected with pcDI-CCR4); format: cell-based; conditions: for IC50: MDC 10 ng/mL, L1.2 cells transfected with pcDI-CCR4, compound preincubation 30 min at 37 °C, chamber 6 h, assayed three times, NA = no significant inhibition; for Chemotaxis inhibition activity against CCR4 (in words, compared with compound 1): CCR4-MDC chemotaxis inhibition assay, compound 1 as positive control
T1 construct: expressed in transfected cells; host or cells: L1.2 cells transfected with pcDI-CCR4
T1 sequence (P51679 1-360): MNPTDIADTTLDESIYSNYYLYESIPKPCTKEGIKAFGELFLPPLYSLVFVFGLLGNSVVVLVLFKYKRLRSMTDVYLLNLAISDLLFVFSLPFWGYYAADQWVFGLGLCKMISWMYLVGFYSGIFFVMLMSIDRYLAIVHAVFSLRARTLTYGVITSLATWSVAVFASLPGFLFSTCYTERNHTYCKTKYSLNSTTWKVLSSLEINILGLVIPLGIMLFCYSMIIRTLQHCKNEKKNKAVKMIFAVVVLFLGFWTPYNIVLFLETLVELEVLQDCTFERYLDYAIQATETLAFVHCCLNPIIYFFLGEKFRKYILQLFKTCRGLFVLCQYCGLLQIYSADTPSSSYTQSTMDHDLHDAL
Method: All the newly synthesized compounds were evaluated by a CCR4-MDC chemotaxis inhibition assay. Compound 1 was employed as the positive control.
The quantitative chemotaxis assays were performed using 48-well Boyden chambers (Neutroprobe, Bethesda, MD, USA) with polyvinylpyrrolidone-free polycarbonate filters with 5 μm pores. The MDC (Peprotech, Rocky Hill, NJ, USA) with a final concentration of 10 ng/mL was added into the lower wells. The L1.2 cells that were transfected with pcDI-CCR4 were suspended in assay buffer at 3 × 10^6 cells/mL, incubated with various final concentrations of compounds for 30 min at 37 °C, and then added to the upper wells. The chamber was incubated for 6 h at 37 °C in an atmosphere containing 5% CO2, and then the upper chambers were removed. The chemotaxis buffer in the lower wells was then harvested and mixed with 25 μL of the luciferase-containing reagent, Cell-Titer Glo. The number of L1.2 cells in the lower well medium was measured with a Veritas Microplate Luminometer (Turner BioSystems, Sunnyvale, CA, USA). All samples were assayed three times. The negative control samples and solvent control samples were defined as the cells migrating toward the lower wells in the absence of chemokine, and as the cells migrating toward the MDC-containing lower wells in the absence of compound in the presence of DMSO, respectively. The percentage of inhibition was determined by the following equation: inhibition = (C − A)/(C − B) × 100%, where A indicates the number of cells in the sample, B indicates the number of cells in the negative control sample and C indicates the number of cells in the solvent control sample. The results are expressed as an IC50 value (sample concentration that inhibits 50% chemotaxis) and calculated using Origin 8.0 software.

CCR4-positive cells = system: CCR4-positive cells; set-up: method as in earlier work; conditions: migration induced by MDC, TARC, and CKLF1; cited from earlier work

SMILES	IC50 (CCR4) [nM]	Chemotaxis inhibition activity against CCR4 (in words, compared with compound 1) (CCR4)	melting point [°C]	Inhibition of migration of CCR4-positive cells (CCR4-positive cells)
O=C([C@H]1CCCCN1)N1CCN(c2nc(Cl)cc(NCc3ccc(Cl)cc3Cl)n2)CC1 [Compound 1]	78 ± 13	–	–	inhibit the migration of CCR4-positive cells
O=C(c1ccccn1)N1CCN(c2nc(Cl)cc(NCc3ccc(Cl)cc3Cl)n2)CC1 [Compound 6a, 6-Chloro-2-[4-(pyridin-2-yl)carbonylpiperazino]-N-(2,4-dichlorobenzyl)pyrimidin-4-amine]	–	did not result in significant inhibition activity	–	–
O=C(C1CCCCC1)N1CCN(c2nc(Cl)cc(NCc3ccc(Cl)cc3Cl)n2)CC1 [Compound 6b, 6-Chloro-2-(4-cyclohexylcarbonylpiperazino)-N-(2,4-dichlorobenzyl)pyrimidin-4-amine]	–	did not result in significant inhibition activity	175.3 to 177.1	–
CN(C)CC(=O)N1CCN(c2nc(Cl)cc(NCc3ccc(Cl)cc3Cl)n2)CC1 [Compound 6c, 6-Chloro-2-[4-(N,N-dimethylaminomethyl)carbonylpiperazino]-N-(2,4-dichlorobenzyl)pyrimidin-4-amine]	64 ± 15	–	166.5 to 168.5	–
O=C([C@H]1CCCCN1)N1CCN(c2nc(Cl)cc(NCc3ccc(Cl)cc3)n2)CC1 [Compound 6d, (R)-6-Chloro-2-[4-(piperidin-2-yl)carbonylpiperazino]-N-(4-chlorobenzyl)pyrimidin-4-amine]	458 ± 51	significantly reduced activity	–	–
O=C([C@H]1CCCCN1)N1CCN(c2nc(Cl)cc(NCc3ccc(F)cc3F)n2)CC1 [Compound 6e]	94 ± 17	slightly reduced activity	87.2 to 89	–

Second part, led by results:

IC50 (CCR4) [nM]	Chemotaxis inhibition activity against CCR4 (in words, compared with compound 1) (CCR4)	melting point [°C]	SMILES	Inhibition of migration of CCR4-positive cells (CCR4-positive cells)
133 ± 21	relatively poorer activity	–	O=C([C@H]1CCCCN1)N1CCN(c2nc(NCc3ccc(Cl)cc3Cl)cc(N3CCCCC3)n2)CC1 [Compound 7a, (R)-2-[4-(Piperidin-2-yl)carbonylpiperazino]-N-(2,4-dichlorobenzyl)-6-piperidino pyrimidin-4-amine]	–
395 ± 66	relatively poorer activity	167.8 to 169.5	O=C([C@H]1CCCCN1)N1CCN(c2nc(NCc3ccc(Cl)cc3Cl)cc(N3CCOCC3)n2)CC1 [Compound 7b, (R)-2-[4-(Piperidin-2-yl)carbonylpiperazino]-N-(2,4-dichlorobenzyl)-6-morpholino pyrimidin-4-amine]	–
77 ± 13	–	82.6 to 84.5	Cc1cc(NCc2ccc(Cl)cc2Cl)nc(N2CCN(C(=O)[C@H]3CCCCN3)CC2)n1 [Compound 12a, (R)-2-[4-(Piperidin-2-yl)carbonylpiperazino]-N-(2,4-dichlorobenzyl)-6-methylpyrimidin-4-amine]	–
69 ± 15	–	–	Cc1cc(NCc2ccc(Cl)cc2Cl)nc(N2CCN(C(=O)CN(C)C)CC2)n1 [Compound 12b, 2-[4-(N,N-dimethylaminomethyl)carbonylpiperazino]-N-(2,4-dichlorobenzyl)-6-methyl pyrimidin-4-amine]	–
178 ± 28	relatively weak activity	146.4 to 148	Cc1cc(NCc2ccc(Cl)cc2Cl)nc(N2CCN(C(=O)C3CCN(C)CC3)CC2)n1 [Compound 12c, 2-[4-(N-methylpiperidin-4-yl)carbonylpiperazino]-N-(2,4-dichlorobenzyl)-6-methylpyrimidin-4-amine]	–
235 ± 45	relatively weak activity	124.3 to 125.8	Cc1cc(NCc2ccc(Cl)cc2Cl)nc(N2CCN(C(=O)[C@H]3CCCO3)CC2)n1 [Compound 12d, (R)-2-[4-(Tetrahydrofuran-2-yl)carbonylpiperazino]-N-(2,4-dichlorobenzyl)-6-methylpyrimidin-4-amine]	–
